The values that follow come from patent US20250136581A1, “SUBSTITUTED TRIAZOLE DERIVATIVE, PREPARATION METHOD THEREFOR, PHARMACEUTICAL COMPOSITION THEREOF, AND USE THEREOF” (SHANGHAI SIMR BIOTECHNOLOGY CO., LTD., priority 2021, published 2025).

This experiment concerns the target human α2β3γ2 receptors (Homo sapiens (Human), UniProt P18507+P47869). The experiment can be described thus: 3H-flunitrazepam competition binding, human α2β3γ2 GABAA receptor. Conditions: HEK293 cell membranes, 1 nM 3H-flunitrazepam; read-out: Ki α2. In outline:
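HEK293 membranes stably expressing each human receptor subtype ([…]) competed against 1 nM 3H-flunitrazepam in Tris buffer, 1 h at room temperature; flumazenil defined the low-signal control. Eight-point 4-fold test-compound dilutions; GF/C filtration and scintillation counting gave IC50 by curve fitting, converted to Ki.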

Molecules are shown by their SMILES.

As usually defined, the Ki is the dissociation constant of the complex between target and ligand, obtained from inhibition or displacement. `Cc1nnn(-c2ccc(C(F)F)cc2)c1COc1ccc(N2CC(=O)NC(C)C2)nn1` (stereo not shown) [Example 6, 4-(6-((1-(4-(Difluoromethyl)phenyl)-4-methyl-1H-1,2,3-triazol-5-yl)methoxy)pyridazin-3-yl)-6-methylpiperazin-2-one]: the Ki worked out at 15.9 nM.
